Results published in US6063788A, “Bicyclic-fused pyridines” (Bayer Aktiengesellschaft, priority 1996, dated 2000).

Assays:
[1] = molecular target: T1, cholesterol ester transfer protein (CETP) (Homo sapiens, UniProt P11597); assay: CETP inhibition testing (transfer of 3H-cholesterol ester from HDL to biotinylated LDL); type: biochemical; conditions: substance concentration at which transfer is reduced by half; 18 h at 37° C.
T1 construct: CETP is obtained from human plasma in partially purified form; from tissue; host or cells: human plasma (partially purified by centrifugation, phenyl-Sepharose, CM-Sepharose, Mono Q)
T1 sequence (P11597 18-493): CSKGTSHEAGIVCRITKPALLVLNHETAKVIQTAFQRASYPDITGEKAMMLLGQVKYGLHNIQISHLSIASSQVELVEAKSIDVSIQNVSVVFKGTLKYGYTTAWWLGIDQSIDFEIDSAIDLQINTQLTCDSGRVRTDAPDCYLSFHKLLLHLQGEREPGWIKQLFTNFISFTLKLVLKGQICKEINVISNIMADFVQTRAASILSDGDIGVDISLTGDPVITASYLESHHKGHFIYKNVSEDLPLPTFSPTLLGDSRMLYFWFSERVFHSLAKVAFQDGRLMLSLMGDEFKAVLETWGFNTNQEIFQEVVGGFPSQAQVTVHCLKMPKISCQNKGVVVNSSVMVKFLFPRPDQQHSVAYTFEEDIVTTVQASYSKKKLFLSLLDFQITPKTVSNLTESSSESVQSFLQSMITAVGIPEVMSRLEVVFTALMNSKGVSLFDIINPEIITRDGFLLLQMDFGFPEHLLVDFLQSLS
Experimental: CETP is obtained from human plasma in partially purified form by differential centrifugation and column chromatography and used for the test. To this end, human plasma is adjusted to a density of 1.21 g per ml using NaBr and centrifuged at 4° C. for 18 h at 50,000 rpm. The bottom fraction (d>1.21 g/ml) is applied to a Sephadex®phenyl-sepharose 4B (Pharmacia) column, washed with 0.15 M NaCl/0.001 M trisHCl pH 7.4 and then eluted with distilled water. The CETP-active fractions are pooled, dialysed against 50 mM Na acetate pH 4.5 and applied to a CM-Sepharose® (Pharmacia) column. The column is then eluted using a linear gradient (0-1 M NaCl). The pooled CETP fractions are dialysed against 10 mM tris HCl pH 7.4 and then further purified by chromatography on a Mono Q® column (Pharmacia).
Obtainment of radiolabelled HDL
50 ml of fresh human EDTA plasma are adjusted to a density of 1.12 using NaBr and centrifuged at 50,000 rpm for 18 h at 4° C. in a Ty 65 rotor. The upper phase is used to obtain cold LDL. The lower phase is dialysed against 3×4 l of PDB buffer (10 mM tris/HCl pH 7.4, […], 1 mM EDTA, 0.02% NaN3). 20 μl of ^3 H-cholesterol (Dupont NET-725; 1 μC/μl dissolved in ethanol!) are then added per 10 ml of retentate volume and the mixture is incubated under N2 at 37° C. for 72 h. […]
To test the CETP activity, the transfer of ^3 H-cholesterol ester from human HD lipoproteins to biotinylated LD lipoproteins is measured.
The reaction is ended by addition of streptavidin-SPA®beads (Amersham) and the transferred radioactivity is determined directly in a liquid scintillation counter.
In the test mixture, 10 μl of HDL-^3 H-cholesterol ester (~50,000 cpm) are incubated at 37° C. for 18 h with 10 μl of biotin-LDL (Amersham) in 50 mM Hepes/0.15 M NaCl/0.1% bovine serum albumin/0.05% NaN3 pH 7.4 with 10 μl of CETP (1 mg/ml) and 3 μl of solution of the substance to be tested (dissolved in 10% DMSO/1% RSA). 200 μl of the SPA-streptavidin bead solution (TRKQ 7005) are then added, the mixture is incubated further for 1 h with shaking and then measured in the scintillation counter. […]

HDL cholesterol = assay: In vivo activity: oral action on lipoproteins (HDL rise) in hamsters; design: species or system Syrian golden hamsters; conditions: Dose 2 × 10 mg/kg, hamster, up to 24 hours
Experimental: In Vivo Activity of the Compounds According to the Invention
In experiments to determine the oral action on lipoproteins and triglycerides, test substance dissolved in DMSO and 0.5% Tylose suspended by means of a stomach tube are administered orally to Syrian golden hamsters from in-house breeding. To determine the CETP activity, blood (about 250 μl) is taken by retro-orbital puncture before the start of the experiment. The test substances are then administered orally by means of a stomach tube. The control animals receive identical volumes of solvents without test substance. The feed is then withdrawn from the animals and blood is taken at various times--up to 24 hours after substance administration--by puncture of the retro-orbital venous plexus.
Clotting is ended by incubation at 4° C. overnight, then centrifugation at 6000×g is carried out for 10 minutes. In the serum thus obtained, the content of cholesterol and triglycerides is determined with the aid of modified commercially available enzyme tests (cholesterol enzymatic 14366 Merck, triglycerides 14364 Merck). Serum is suitably diluted using physiological saline solution.
100 μl of serum dilution are mixed with 100 μl of […] in 96-hole plates and incubated at room temperature for 10 minutes. The optical density is then determined at a wavelength of 492 nm using an automatic plate-reading apparatus. The triglyceride or cholesterol concentration contained in the samples is determined with the aid of a standard curve measured in parallel.
The determination of the content of HDL cholesterol is carried out according to the manufacturer's instructions after precipitation of the ApoB-containing lipoproteins by means of a reagent mixture (Sigma 352-4 HDL cholesterol reagent).

CETP = assay: Ex vivo activity: CETP activity in serum of treated hamsters; design: species or system Syrian golden hamsters; conditions: hamster serum; for ED50 (ex vivo activity): up to 24 hours after administration
Experimental: Ex Vivo Activity of the Compounds According to the Invention
Syrian golden hamsters from in-house breeding are anaesthetized after fasting for 24 hours (0.8 mg/kg of atropine, 0.8 mg/kg of Ketavet® s.c., 30' later 50 mg/kg of Nembutal i.p.). The jugular vein is then exposed and cannulated. The test substance is dissolved in a suitable solvent (as a rule Adalat placebo solution: 60 g of glycerol, 100 ml of H2 O, PEG-400 to 1000 ml) and administered to the animals via a PE catheter inserted in the jugular vein. The control animals receive the same volume of solvent without test substance. The vein is then tied off and the wound is closed. The administration of the test substances can also be carried out p.o., by orally administering the substances dissolved in DMSO and suspended in 0.5% Tylose by means of a stomach tube. The control animals receive identical volumes of solvent without test substance.
After various times--up to 24 hours after administration--blood (about 250 μl) is taken from the animals by puncture of the retro-orbital venous plexus. Clotting is ended by incubation at 4° C. overnight, then centrifugation is carried out at 6000×g for 10 minutes. In the serum thus obtained, CETP activity is determined by the modified CETP test. As for the CETP test described above, the transfer of ^3 H-cholesterol ester from HD lipoproteins to biotinylated LD lipoproteins is measured.
The reaction is ended by addition of Streptavidin-SPA® beads (Amersham) and the transferred radioactivity is determined directly in the liquid scintillation counter.
The test mixture is carried out as described under "CETP test". For the testing of the serum, only 10 μl of CETP are replaced by 10 μl of the corresponding serum samples. As controls, corresponding incubations with sera of untreated animals are used.
The activity transferred in the control mixtures with control sera is rated as 100% transfer. The substance concentration at which this transfer is reduced to a half is indicated as the ED50 value.

transgenic hCETP mice = assay: In vivo activity in transgenic hCETP mice; conditions: 100 ppm in the feed; one week
Experimental: In Vivo Activity in Transgenic hCETP Mice
Transgenic mice from in-house breeding (Dinchuck, Hart, Gonzalez, Karmann, Schmidt, Wirak; BBA (1995), 1295, 301) were administered the substances to be tested in the feed. Before the start of the experiment, blood was taken retro-orbitally from the mice in order to determine cholesterol and triglycerides in the serum. The serum was obtained as described above for hamsters by incubation at 4° C. overnight and subsequent centrifugation at 6000×g. After one week, blood was again taken from the mice in order to determine lipoproteins and triglycerides. The change in the parameters measured is expressed as a percentage change compared with the starting value.

IC50 [1] | Structure (SMILES) | % HDL rise (HDL cholesterol) | % Inhibition at 10 mg/kg (CETP) | ED50 (ex vivo activity) (CETP) | also measured
240 nM | OC(c1ccc(Cl)c(C(F)(F)F)c1)c1c(C2CCCC2)nc2c(c1-c1ccc(F)cc1)C(O)c1ccccc1-2 (stereo not drawn) [Example 22] | – | – | – | –
300 nM | CC(C)c1nc2c(c(-c3ccc(F)cc3)c1C(F)c1ccc(C(F)(F)F)cc1)C(O)c1cc(Cl)c(Cl)cc1-2 (stereo not drawn) [Example 27] | – | – | – | –
– | OC1c2ccccc2-c2nc(C3CCCC3)c(C(F)c3ccc(C(F)(F)F)cc3)c(-c3ccc(F)cc3)c21 (stereo not drawn) [Example 18] | 3.3% | – | – | –
– | O=C1c2cccc(F)c2-c2nc(C3CCCC3)c(C(F)c3ccc(C(F)(F)F)cc3)c(-c3ccc(F)cc3)c21 (stereo not drawn) [Example 29] | – | 17.2% | > 10 mg/kg | –
– | OC1c2ccccc2-c2nc(C3CCCC3)c(Cc3ccc(C(F)(F)F)cc3)c(-c3ccc(F)cc3)c21 (stereo not drawn) [Example 20] | 11.14% | – | – | –
– | O=C(c1ccc(C(F)(F)F)cc1)c1c(C2CCCC2)nc2c(c1-c1ccc(F)cc1)C(O)c1ccccc1-2 (stereo not drawn) [Example 19] | 17.1% | 46.0% | > 10 mg/kg | –
60 nM | CC(C)c1nc2c(c(-c3ccc(F)cc3)c1C(F)c1ccc(C(F)(F)F)cc1)C(O)c1ccccc1-2 (stereo not drawn) [Example 14] | – | 64.0% | < 10 mg/kg | HDL (percentage change compared with the starting value) (transgenic hCETP mice): 22.0%; LDL (percentage change compared with the starting value) (transgenic hCETP mice): -10.5%; Triglyceride (percentage change compared with the starting value) (transgenic hCETP mice): -9.7%
